What was measured:
solubility in water = assay type: physicochemical
NPR1 [1] = biological target: T1, NPR1 (Arabidopsis thaliana, UniProt P93002); assay: homologous and heterologous competitive binding curves for the [14C]SA-NPR1 interaction (equilibrium dialysis); details: 0.08 μM NPR1, 0.07 μM [14C]SA
T1 construct: made in house; host or cells: E. coli
Description: Given the dissociation reaction:
For the saturation binding curves (FIGS. 1C and 7D/E), 0.8 μM of NPR1 protein was incubated with a final concentration of 0.007-14 μM [^14C]SA. The data was analyzed by non-linear regression using GraphPad PRISM 4 and fitted to a one-site-binding rectangular hyperbola. For homologous and heterologous competitive binding curves (FIGS. 1E/F and 7F/G), 0.08 μM of NPR1 protein was incubated with a final concentration of 0.07 μM [^14C]SA.

NPR1 [2] = biological target: T1, NPR1; assay: Sephacryl S300 gel filtration of Strep-tagged NPR1; assay type: biochemical; details: 1 mM SA, catechol, 4-hydroxy benzoic acid or methyl-salicylate, 30 min; DTT concentration not given
Description: Strep-tagged purified proteins in a final volume of 2 ml were subjected to gel filtration analysis on the Sephacryl S100 HR or Sephacryl S300 HR packed in 50 cm long HR 16 columns (GE Health) and equilibrated with S300 chromatography buffer (50 mM HEPES, pH 7.4, 250 mM NaCl. Elutions, in 0.5 ml fractions, were performed in the same buffer at a flow rate of 0.8 ml/min. Where indicated, proteins were incubated with 1 mM SA, 1 mM catechol, 1 mM 4-hydroxy benzoic acid, or 1 mM methyl-salicylate at room temperature for 30 min prior to chromatography as described above with the exception that the chromatography buffer was supplemented with 1 mM SA, 1 mM catechol, 1 mM 4-hydroxy benzoic acid, or 1 mM methyl-salicylate, respectively. In the case of the EDTA treatment, NPR1 was stripped of its metal by a 50 mM EDTA treatment of 30 min, followed by an incubation of 30 min with 1 mM SA prior to gel filtration. In this case, the chromatography buffer was supplemented with 1 mM SA.

[3] = biological target: T2, NPR1-dependent oligomer on the PR-1 promoter (Arabidopsis thaliana, UniProt P93002); assay: Cross-linked-chromatin chromatography (3C Method); assay type: in vivo; details: wild-type plants, region −734 to −833
T2 construct: in wild-type plants (WT), such an oligomer forms on the PR-1 promoter; endogenous in cells; host or cells: wild-type Arabidopsis plants
T2 sequence (P93002 1-593): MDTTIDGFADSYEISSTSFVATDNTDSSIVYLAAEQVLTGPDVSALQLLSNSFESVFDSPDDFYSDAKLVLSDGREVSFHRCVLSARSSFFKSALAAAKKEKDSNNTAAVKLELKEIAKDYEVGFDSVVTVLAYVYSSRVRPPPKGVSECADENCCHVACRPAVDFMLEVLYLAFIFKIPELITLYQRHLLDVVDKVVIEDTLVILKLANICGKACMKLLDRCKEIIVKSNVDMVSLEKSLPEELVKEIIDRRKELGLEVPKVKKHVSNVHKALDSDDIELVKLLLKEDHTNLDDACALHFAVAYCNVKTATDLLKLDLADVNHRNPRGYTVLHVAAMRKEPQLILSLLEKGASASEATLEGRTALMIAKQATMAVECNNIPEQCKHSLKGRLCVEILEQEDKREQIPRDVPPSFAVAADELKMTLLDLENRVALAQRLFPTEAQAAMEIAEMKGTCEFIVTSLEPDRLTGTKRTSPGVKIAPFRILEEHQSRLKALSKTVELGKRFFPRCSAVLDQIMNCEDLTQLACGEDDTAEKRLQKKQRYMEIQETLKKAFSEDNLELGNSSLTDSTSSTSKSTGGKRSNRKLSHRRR
Description: Plant treatment, cross-linking, sonication, and cross-linking reversal were performed as for chromatin-immunoprecipitation (Rochon et al., 2006). Chromatography was as described under “Chromatography”. qPCR was performed with PR1 and Ubiquitin5 primers. PR-1 values were normalized against Ubiquitin5 (see Table 1 for primer sequence).
Although there are no decisive methods to test the stoichiometry of a protein in vivo, it was determined whether or not NPR1-dependent oligomers form on DNA in vivo by combining chromatin cross-linking, gel filtration, and qPCR (the 3C Method). The rationale was that, if an NPR1-dependent oligomer forms on the PR1 promoter in vivo, the presence of PR1 should be detectable by qPCR in the void fraction of an S300 after the chromatin had been cross-linked and sheared by sonication.

PR-1 expression = PR-1 expression by quantitative RT-PCR after chemical treatment; assay type: in vivo, Arabidopsis; details: 12 hrs
Description: Total RNA was extracted from leaves using the Rneasy plant mini kit (Qiagen) according to the supplier's instructions. After treatment with Dnase I (Invitrogen), first strand cDNA synthesis was generated using SuperScript II reverse transcriptase (Invitrogen), and the (dT)17VN oligo in the presence of 0.4 U Rnasin (Fisher Scientific). The newly-synthesized cDNA was diluted 1/200 to reflect a concentration of 10 ng μL^−1 input total RNA. RT-PCR was performed on a CFX96 spectrofluorometric thermal cycler (BioRad). Firefly luciferase values were normalized against Renilla Luciferase and PR-1 values against Ubiquitin5 (see Table 1 for primer sequence). […] All treatments were for 12 hrs. Values consist of n=3 biological replicates and represent averages±1 SD.

[4] = 300 μM, fold-induction over water

solubility in water (solubility in water) | SMILES | affinity for NPR1 compared with SA (competitive binding) (NPR1 [1]) | conformation of NPR1 (S300 elution profile) (NPR1 [2]) | NPR1-dependent oligomer on the PR-1 promoter (void fraction, qPCR) [3] | other results
low solubility in water | O=C(O)c1cc(Cl)cc(Cl)c1O [3,5-dichloro SA] | – | – | – | –
– | O=C(O)c1cccc(O)c1 [3-hydroxy benzoic acid] | do not interact with NPR1 with the same affinity as SA | – | – | –
low solubility in water | O=C(O)c1ccc(Cl)cc1O [4-chloro SA] | – | – | – | –
– | O=C(O)c1ccc(O)cc1 [4-hydroxy benzoic acid] | do not interact with NPR1 with the same affinity as SA | do not alter the conformation of NPR1 | did not reduce the amount of NPR1-dependent oligomer | –
low solubility in water | CSC(=O)c1cccc2nnsc12 [BTH, benzo(1,2,3)thiadiazole-7-carbothioic acid S-methyl ester] | – | – | reduced the amount of NPR1-dependent oligomer on the PR-1 promoter | PR-1 expression (PR-1 expression; BTH at 100 μM): capacity to induce PR-1 expression
– | O[C@@H](CS)[C@@H](O)CS [DTT] | – | did not induce a redistribution of the protein to the included volume | – | –
– | Oc1ccccc1O [catechol] | do not interact with NPR1 with the same affinity as SA | do not alter the conformation of NPR1 | – | –

SMILES | solubility in water (solubility in water) | affinity for NPR1 compared with SA (competitive binding) (NPR1 [1]) | conformation of NPR1 (S300 elution profile) (NPR1 [2]) | NPR1-dependent oligomer on the PR-1 promoter (void fraction, qPCR) [3] | other results
O=C(O)c1cc(Cl)nc(Cl)c1 [INA, 2,6-dichloroisonicotinic acid] | low solubility in water | – | – | did not affect the NPR1-dependent oligomer on the PR-1 promoter | PR-1 expression (PR-1 expression; 300 μM): poor inducer of PR-1 expression; PR-1 induction, times less effective than an identical concentration of 4-chloro SA (PR-1 expression; [4]): 10 times; PR-1 induction, times less effective than an identical concentration of SA (PR-1 expression; [4]): 42 times

Reference: US10674724B2, “Method of activating immune response in plants” (priority 2012, dated 2020)
